Measurements taken from US20250339391A1, “METHODS FOR EFFECTIVE MANAGEMENT OF PAIN” (South Rampart Pharma, Inc., priority 2024, published 2025).

Tests used:
[1] = tested on: Beagle dogs; experiment: Dose-range-finding oral toxicity study in Beagle dogs, Phase I (non-GLP); type: in vivo, dog
Experimental: 3) A Dose-Range-Finding and 7-day Repeat-Dose Oral Toxicity Study of SRP-001 in Beagle dogs (Non-GLP) Two beagle dogs (1/sex) were administered 30, 100, 250, or 500 mg/kg SRP-001. […] After a period of at least 2 d (minimum of 44 h) following the previous dose of test article, additional dose levels of SRP-001, as indicated above, were administered by oral gavage to the same 2 dogs (1 male and 1 female). Each dose was based on the dog's most recent body weight. Mortality/morbidity was observed twice daily and once prior to scheduled sacrifice. Body weights were recorded prior to randomization/selection, prior to each dose administration, and prior to scheduled sacrifice. At scheduled sacrifice, a gross necropsy was performed, and the tissues were appropriately discarded. […] Doses for Phase II of the study were set based on Phase I results. The actual dose amounts selected for Phase II of the study were 0, 30, 100, or 300 mg/kg/d of SRP-001. These doses were administered once daily for seven consecutive days to 1 Beagle dog/sex/dose.

[2] = tested on: male Beagle dogs; conditions: dog, in vivo
Experimental: 6) A Two-day Oral Dose Toxicity and Pharmacokinetic Study of SRP-001 in Beagle Dogs Non-GLP) SRP-001 was supplied by Olon Ricerca Bioscience as an off-white powder and then prepared as dosing suspensions for oral administration via gavage (Calvert Labs/Altasciences, Scott Township, PA USA). Six experimentally non-naïve male Beagle dogs (3/dose), at least 7 months old and weighing 7.2 to 10.2 kg prior to treatment initiation, were administered 100 or 900 mg/kg/d SRP-001. Animals were dosed three times daily (3-5 h between doses) for 2 d. Mortality/morbidity was performed twice daily. On the day of dosing, animals were observed prior to each dose administration and approximately 1-3 h after each dose. Animals were also observed once on day 3. Body weights were recorded for all animals prior to the first dose administration on days 1 and 3, and food consumption was recorded daily. Blood for bioanalytical evaluation was collected at selected timepoints on day 1. Following the completion of the study, surviving animals were not euthanized and were returned to the Calvert colony.

[3] = tested on: Beagle dogs; conditions: dog, in vivo
Experimental: 8) A 28-day Oral Toxicity Study of SRP-001 in Beagle Dogs with a 14-day Recovery (GLP study) SRP-001 was supplied by Olon Ricerca Bioscience as an off-white powder. The test article was then prepared into dosing suspensions for oral administration via gavage (Calvert Labs/Altasciences, Scott Township, PA USA). Thirty-two experimentally naïve Beagle dogs (16 males and 16 females), 8-9 months old and weighing 6.7-10.5 kg for males and females at the outset of the study, were administered 0, 165, 330, or 495 mg/kg/d. Animals were dosed three times daily (3-5 h between doses) for 28 consecutive days. Prior to this dosing schedule, the dosing was initiated with once daily dosing at 0, 100, 300, or 900 mg/kg at a dose volume of 5 to 10 ml/kg. Due to adverse clinical signs noted following dosing of all groups at a dose volume of 10 ml/kg, dosing of the animals was suspended on day 2 for males and day 1 for females. The study was restarted with T.I.D. dosing in lower dose volume to reduce vehicle-related toxicity.
In-life data from the initial start of the study using once daily dosing were not included in the report but are maintained in the study file. Following the restart of the study, the study was conducted as follows. Mortality/morbidity was performed twice daily and once prior to the scheduled sacrifice. Animals were observed prior to each dose administration and 1-3 h after each dose administration. Animals were also observed once daily on non-dosing days and once prior to scheduled sacrifice. Body weights were recorded prior to randomization/selection, prior to the first dose administration on day 1 and weekly thereafter. Food consumption was determined daily. Ophthalmology examinations and electrocardiograms were performed before treatment initiation and during the last week of dosing. Blood for evaluation of hematology, coagulation and clinical chemistry and urine for urinalysis was collected prior to treatment initiation and on days 29 and 43. Blood for toxicokinetic evaluation was collected at selected timepoints on days 1 and 28. All surviving animals were sacrificed on day 29 or day 43. Selected tissues were harvested at necropsy, selected organs weighed, and selected tissues evaluated microscopically.

[4] = tested on: Chinese Hamster Ovary Cells; experiment: In vitro mammalian chromosomal aberration assay; type: cell-based; conditions: for doses with cytotoxicity: non-activated 20-h exposure
Experimental: To further evaluate the potential genotoxicity of SRP-001 and determine the validity of the in vitro findings, a second in vivo assay, a GLP-compliant Comet assay, was conducted in accordance with ICH S2(R1) Guidance on Genotoxicity Testing and Data Interpretation for Pharmaceuticals Intended for Human Use. […] SRP-001 was tested to evaluate its mutagenic potential by measuring its ability to induce reverse mutations at selected loci of several strains of Salmonella typhimurium (S. typhimurium) and at the tryptophan locus of Escherichia coli (E. coli) strain WP2 uvrA in the presence and absence of an exogenous metabolic activation system (Bioreliance, Rockville, MD USA). Dimethyl sulfoxide (10% DMSO) was used as the vehicle. The dose levels tested in the preliminary toxicity assay were 6.67, 10.0, 33.3, 66.7, 100, 333, 667, 1000, 3333, and 5000 μg per plate. No precipitate was observed. […] The dose levels tested in the mutagenicity assay were 100, 333, 667, 1000, 3333, and 5000 μg per plate. […] In the preliminary toxicity assay, the doses tested ranged from 0.0405 to 405 μg/mL (1 mM), which was the limit dose for this assay (Bioreliance, Rockville, MD USA).
The doses selected for evaluation of chromosome aberrations were 150, 300, and 405 μg/mL for the non-activated and S9-activated 4-h exposure groups; and 10, 40, and 80 μg/mL for the non-activated 20-h exposure group. […] The induction of structural aberrations was outside the 95% control limit of the historical negative control data of 0.00% to 2.79%. […] However, the induction of structural aberrations was within the 95% control limit of the historical negative control data of 0.00% to 4.28%. […] The induction of structural aberrations was outside the 95% control limit of the historical negative control data of 0.00% to 2.68%.

Compound: CCN(CC)C(=O)c1ccccc1S(=O)(=O)NCC(=O)Nc1ccc(O)cc1 [SRP-001, N,N-diethyl-2-[[2-(4-hydroxyanilino)-2-oxo-ethyl]sulfamoyl]benzamide]
- body weight and food consumption ([1]; 30, 100, 250 or 500 mg/kg): No test article-related effects
- clinical signs ([1]; 30, 100, 250 or 500 mg/kg oral gavage): Loose feces and emesis were observed following most doses
- emesis [2]: Nearly all animals had emesis
- amplification in peak plasma concentration ([2]; male, Beagle): 3-4 fold
- tolerated dose ([2]; male, Beagle, 2 d): 900 mg/kg/day
- reversibility after 14-d recovery ([3]; both, Beagle, 14 d): nearly all SRP-001-related changes observed on day 29 were reversible
- no-adverse-effect level ([3]; both, Beagle, 28 d): 330 mg/kg/day
- doses without treatment-related adverse effects ([3]; both, Beagle, po, 28 d): up to 330 mg/kg/day
- hematology finding [3]: regenerative anemia
- induction of numerical chromosomal aberrations, conclusion [4]: negative for the induction of numerical chromosomal aberrations
- structural aberrations ([4]; Chinese hamster, 20 h, 80 μg/mL): 3.7%
- dose with cytotoxicity ([4]; chromosome aberration assay, non-activated 4-h exposure): 405 µg/mL
- doses with cytotoxicity ([4]; chromosome aberration assay): ≥ 70 µg/mL
- doses with cytotoxicity ([4]; preliminary toxicity assay): ≥ 122 µg/mL
